pIC50: −log10 of the molar value.
molecular target: T1, calcium channel (3H-nitrendipine binding, heart membranes) (Oryctolagus cuniculus, UniProt P15381); assay: Assay for inhibition of nitrendipine binding (3H-nitrendipine, rabbit heart membranes); conditions: 3H-nitrendipine 0.05-0.50 nM, 90 minutes at 4° C., compounds of Formula I (Table 1)
T1 construct: from tissue; host or cells: rabbit heart (crude membrane pellet)
Description: Female, New Zealand white rabbits (1-2 kg) are sacrificed by cervical dislocation, and the heart is immediately removed, cleaned and chopped into small pieces. The tissue is homogenized in 5×volume of 0.05M Hepes buffer, pH 7.4. The homogenate is centrifuged at 4000 g for 10 minutes, and the supernatant is re-centrifuged at 42,000 g for 90 minutes. The resulting membrane pellet is resuspended (0.7 ml/g weight) in 0.05M Hepes, pH 7.4 and stored at […] until used. Each tube of the binding assay contains ^3H-nitrendipine (0.05-0.50 nM), buffer, membranes (0.10 ml ), and test compound in a total volume of 1.0 ml . After 90 minutes at 4° C., the bound nitrendipine is separated from the unbound by filtration on Whatman GF/C filters. After rinsing, the filters are dried and counted in a liquid scintillation counter.
Non-specifically bound ^3H-nitrendipine (i.e., the amount bound in the presence of excess unlabelled nitrendipine) is subtracted from the total bound to obtain specifically-bound radiolabeled nitrendipine. The amount of specifically-bound nitrendipine in the presence of a test compound is compared to the amount bound in the absence of the compound. A percent displacement (or inhibition) can then be obtained.

T1 sequence (P15381 whole entry, other chains not shown): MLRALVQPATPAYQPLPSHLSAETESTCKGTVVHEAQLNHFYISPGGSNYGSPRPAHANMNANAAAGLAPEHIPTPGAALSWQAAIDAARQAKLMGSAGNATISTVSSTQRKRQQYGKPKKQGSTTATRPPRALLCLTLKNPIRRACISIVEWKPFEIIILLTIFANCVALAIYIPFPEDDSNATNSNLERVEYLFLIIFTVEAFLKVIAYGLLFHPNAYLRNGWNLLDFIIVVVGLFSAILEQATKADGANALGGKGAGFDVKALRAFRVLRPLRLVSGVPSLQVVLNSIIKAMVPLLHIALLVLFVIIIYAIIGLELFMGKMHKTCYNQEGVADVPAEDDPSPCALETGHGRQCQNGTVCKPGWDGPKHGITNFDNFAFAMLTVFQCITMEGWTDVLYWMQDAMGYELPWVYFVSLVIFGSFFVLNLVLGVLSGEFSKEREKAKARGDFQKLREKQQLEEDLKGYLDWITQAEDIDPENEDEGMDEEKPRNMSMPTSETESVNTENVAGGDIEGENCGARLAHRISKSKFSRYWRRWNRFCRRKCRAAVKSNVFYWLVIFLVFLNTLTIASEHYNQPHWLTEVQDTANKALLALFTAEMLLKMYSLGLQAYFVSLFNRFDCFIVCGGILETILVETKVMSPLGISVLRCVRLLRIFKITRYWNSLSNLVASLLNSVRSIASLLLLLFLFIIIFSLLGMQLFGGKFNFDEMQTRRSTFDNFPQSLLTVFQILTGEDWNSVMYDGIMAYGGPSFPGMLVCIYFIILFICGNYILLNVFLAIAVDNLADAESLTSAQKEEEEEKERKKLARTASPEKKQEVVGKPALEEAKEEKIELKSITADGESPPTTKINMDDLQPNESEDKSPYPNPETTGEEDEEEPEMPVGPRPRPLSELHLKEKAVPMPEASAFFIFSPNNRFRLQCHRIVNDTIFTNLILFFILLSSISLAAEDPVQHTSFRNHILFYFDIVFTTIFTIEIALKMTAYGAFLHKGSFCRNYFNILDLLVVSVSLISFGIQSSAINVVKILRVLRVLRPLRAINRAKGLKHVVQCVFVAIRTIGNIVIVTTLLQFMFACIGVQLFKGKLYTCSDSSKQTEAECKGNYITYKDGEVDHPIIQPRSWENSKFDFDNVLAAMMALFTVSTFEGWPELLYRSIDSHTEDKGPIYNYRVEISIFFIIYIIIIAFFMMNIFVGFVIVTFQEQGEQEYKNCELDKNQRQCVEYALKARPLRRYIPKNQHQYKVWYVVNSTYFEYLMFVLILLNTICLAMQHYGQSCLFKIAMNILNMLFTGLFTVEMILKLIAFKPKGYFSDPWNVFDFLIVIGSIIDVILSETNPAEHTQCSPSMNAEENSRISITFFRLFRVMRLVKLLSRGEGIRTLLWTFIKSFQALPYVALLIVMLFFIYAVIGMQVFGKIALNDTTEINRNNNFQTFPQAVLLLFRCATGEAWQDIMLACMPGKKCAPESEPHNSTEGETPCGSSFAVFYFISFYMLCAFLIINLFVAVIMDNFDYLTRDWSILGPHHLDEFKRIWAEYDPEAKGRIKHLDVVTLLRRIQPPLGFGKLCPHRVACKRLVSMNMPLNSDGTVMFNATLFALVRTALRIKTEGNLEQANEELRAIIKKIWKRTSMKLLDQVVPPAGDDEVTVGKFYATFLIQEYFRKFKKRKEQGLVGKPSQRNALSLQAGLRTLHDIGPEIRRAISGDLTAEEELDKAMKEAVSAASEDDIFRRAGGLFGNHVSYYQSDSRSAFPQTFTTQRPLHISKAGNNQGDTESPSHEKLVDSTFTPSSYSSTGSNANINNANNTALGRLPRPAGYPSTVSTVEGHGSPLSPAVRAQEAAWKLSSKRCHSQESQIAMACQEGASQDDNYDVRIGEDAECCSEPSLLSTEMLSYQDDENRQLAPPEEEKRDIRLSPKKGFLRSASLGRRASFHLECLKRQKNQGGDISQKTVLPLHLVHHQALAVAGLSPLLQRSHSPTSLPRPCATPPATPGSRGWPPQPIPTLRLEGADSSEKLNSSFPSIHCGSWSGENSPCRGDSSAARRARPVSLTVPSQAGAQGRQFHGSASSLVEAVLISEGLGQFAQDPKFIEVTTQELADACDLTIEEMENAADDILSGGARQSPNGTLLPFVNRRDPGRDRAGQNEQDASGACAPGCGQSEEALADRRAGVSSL
T1 sequence (P13806 27-960 partner limits assumed, other chains not shown): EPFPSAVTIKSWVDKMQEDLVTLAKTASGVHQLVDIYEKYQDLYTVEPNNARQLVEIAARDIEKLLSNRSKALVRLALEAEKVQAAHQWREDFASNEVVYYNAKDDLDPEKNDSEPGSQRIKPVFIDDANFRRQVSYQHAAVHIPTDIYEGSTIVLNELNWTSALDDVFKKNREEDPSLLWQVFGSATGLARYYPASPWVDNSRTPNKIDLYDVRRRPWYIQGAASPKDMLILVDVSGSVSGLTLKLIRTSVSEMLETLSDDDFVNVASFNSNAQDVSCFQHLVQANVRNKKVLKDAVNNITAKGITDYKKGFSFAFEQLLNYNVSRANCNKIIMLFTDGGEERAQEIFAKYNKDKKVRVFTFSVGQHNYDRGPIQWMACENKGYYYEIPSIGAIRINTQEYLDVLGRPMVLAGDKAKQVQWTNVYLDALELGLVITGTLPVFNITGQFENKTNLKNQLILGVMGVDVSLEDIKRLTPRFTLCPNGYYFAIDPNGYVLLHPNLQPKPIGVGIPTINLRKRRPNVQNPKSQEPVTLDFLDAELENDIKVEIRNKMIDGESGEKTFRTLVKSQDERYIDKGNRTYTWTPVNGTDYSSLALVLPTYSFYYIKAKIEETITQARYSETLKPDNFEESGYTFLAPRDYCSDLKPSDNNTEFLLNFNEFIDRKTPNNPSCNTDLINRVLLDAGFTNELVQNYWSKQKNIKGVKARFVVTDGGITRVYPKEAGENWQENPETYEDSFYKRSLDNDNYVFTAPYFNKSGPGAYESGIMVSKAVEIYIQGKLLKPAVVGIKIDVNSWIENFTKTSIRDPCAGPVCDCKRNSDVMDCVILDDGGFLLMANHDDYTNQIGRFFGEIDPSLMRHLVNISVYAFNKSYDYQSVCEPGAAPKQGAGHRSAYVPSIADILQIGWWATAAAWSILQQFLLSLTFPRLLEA
T1 sequence (P13806 961-1106 partner limits assumed, other chains not shown): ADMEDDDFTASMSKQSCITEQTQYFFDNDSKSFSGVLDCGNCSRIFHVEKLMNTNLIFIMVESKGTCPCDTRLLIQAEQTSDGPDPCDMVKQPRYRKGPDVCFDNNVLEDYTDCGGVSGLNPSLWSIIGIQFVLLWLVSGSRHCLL

Row | SMILES | pIC50
1 | COC(=O)C1=C(C)NC2=C(C1c1ccccc1Cl)S(=O)(=O)CCOC2 (stereo not drawn) [Compound 2, 5H-[1,4]oxathiepino[6,5-b]pyridine-8-carboxylic acid, 9-(2-chlorophenyl)-2,3,6,9-tetrahydro-7-methyl, methyl ester, 1,1-dioxide] | 7.92
2 | COC(=O)C1=C(C)NC2=C(C1c1cccc([N+](=O)[O-])c1)S(=O)(=O)CCOC2 (stereo not drawn) [Compound 4, 5H-[1,4]oxathiepino[6,5-b]pyridine-8-carboxylic acid, 2,3,6,9-tetrahydro-7-methyl-9-(3-nitrophenyl), methyl ester, 1,1-dioxide] | 7.34
3 | COC(=O)C1=C(C)NC2=C(C1c1ccccc1[N+](=O)[O-])S(=O)(=O)CCOC2 (stereo not drawn) [Compound 5, 5H-[1,4]oxathiepino[6,5-b]pyridine-8-carboxylic acid, 2,3,6,9-tetrahydro-7-methyl-9-(2-nitrophenyl), methyl ester, 1,1-dioxide] | 7.47

More lines, now with the values ahead:

Row | pIC50 | SMILES
4 | 7.41 | CC1=C(C(=O)OCCN(C)Cc2ccccc2)C(c2cccc([N+](=O)[O-])c2)C2=C(COCCS2(=O)=O)N1 (stereo not drawn) [Compound 1, 5H-[1,4]oxathiepino[6,5-b]pyridine-8-carboxylic acid, 2,3,6,9-tetrahydro-7-methyl-9-(3-nitrophenyl), 2-[methyl(phenylmethyl)amino]ethyl ester, 1,1-dioxide]
5 | 6.89 | CC1=C(C(=O)OCCN(C)Cc2ccccc2)C(c2ccccc2Cl)C2=C(COCCS2(=O)=O)N1 (stereo not drawn) [Compound 3, 5H-[1,4]oxathiepino[6,5-b]pyridine-8-carboxylic acid, 9-(2-chlorophenyl)-2,3,6,9-tetrahydro-7-methyl, 2-[methyl(phenylmethyl)amino]ethyl ester, 1,1-dioxide]
6 | 7.68 | COC(=O)C1=C(C)NC2=C(C1c1cccc(Cl)c1)S(=O)(=O)CCOC2 (stereo not drawn) [Compound 6, 5H-[1,4]oxathiepino[6,5-b]pyridine-8-carboxylic acid, 9-(3-chlorophenyl)-2,3,6,9-tetrahydro-7-methyl, methyl ester, 1,1-dioxide]
7 | 7.89 | CC1=C(C(=O)OCCN(C)Cc2ccccc2)C(c2cccc(Cl)c2)C2=C(COCCS2(=O)=O)N1 (stereo not drawn) [Compound 7, 5H-[1,4]oxathiepino[6,5-b]pyridine-8-carboxylic acid, 9-(3-chlorophenyl)-2,3,6,9-tetrahydro-7-methyl, 2-[methyl(phenylmethyl)amino]ethyl ester, 1,1-dioxide]
8 | 7.07 | CC1=C(C(=O)OCCN(C)Cc2ccccc2)C(c2ccccc2[N+](=O)[O-])C2=C(COCCS2(=O)=O)N1 (stereo not drawn) [Compound 8, 5H-[1,4]oxathiepino[6,5-b]pyridine-8-carboxylic acid, 2,3,6,9-tetrahydro-7-methyl-9-(2-nitrophenyl), 2-[methyl(phenylmethyl)amino]ethyl ester, 1,1-dioxide]

same assay, conditions: 3H-nitrendipine, compounds of Formula IIa (Table 2)

Row | SMILES | pIC50
9 | CC1=C(C(=O)OCCOC(=O)C2CCCCC2)C(c2c(F)cccc2Cl)C2=C(COCCS2(=O)=O)N1 (stereo not drawn) [Compound 11, 5H-[1,4]oxathiepino[6,5-b]pyridine-8-carboxylic acid, 9-(2-chloro-6-fluorophenyl)-2,3,6,9-tetrahydro-7-methyl-, 2-[(cyclohexylcarbonyl)oxy]ethyl ester, 1,1-dioxide] | 7.02
10 | CC(=O)OCCOC(=O)C1=C(C)NC2=C(C1c1c(F)cccc1Cl)S(=O)(=O)CCOC2 (stereo not drawn) [Compound 12, 5H-[1,4]oxathiepino[6,5-b]pyridine-8-carboxylic acid, 9-(2-chloro-6-fluorophenyl)-2,3,6,9-tetrahydro-7-methyl-, 2-(acetyloxy)ethyl ester, 1,1-dioxide] | 6.24
11 | CC1=C(C(=O)OCCOC(=O)C2CC2)C(c2c(F)cccc2Cl)C2=C(COCCS2(=O)=O)N1 (stereo not drawn) [Compound 13, 5H-[1,4]oxathiepino[6,5-b]pyridine-8-carboxylic acid, 9-(2-chloro-6-fluorophenyl)-2,3,6,9-tetrahydro-7-methyl-, 2-[(cyclopropylcarbonyl)oxy]ethyl ester, 1,1-dioxide] | 6.38
12 | CC1=C(C(=O)OCCOC(=O)C(C)C)C(c2c(F)cccc2Cl)C2=C(COCCS2(=O)=O)N1 (stereo not drawn) [Compound 14, 5H-[1,4]oxathiepino[6,5-b]pyridine-8-carboxylic acid, 9-(2-chloro-6-fluorophenyl)-2,3,6,9-tetrahydro-7-methyl-, 2-(2-methyl-1-oxopropoxy)ethyl ester, 1,1-dioxide] | 7.22
13 | CC1=C(C(=O)OCc2oc(=O)oc2C)C(c2cccc(Cl)c2Cl)C2=C(COCCS2(=O)=O)N1 (stereo not drawn) [Compound 19, 5H-[1,4]oxathiepino[6,5-b]pyridine-8-carboxylic acid, 9-(2,3-dichlorophenyl)-2,3,6,9-tetrahydro-7-methyl-, (5-methyl-2-oxo-1,3-dioxol4-yl)methyl ester, 1,1-dioxide] | 7.74
14 | CC1=C(C(=O)OCCO)C(c2c(F)cccc2Cl)C2=C(COCCS2(=O)=O)N1 (stereo not drawn) [Compound 20] | 5.36

Next, values leading:

Row | pIC50 | SMILES
15 | 7.77 | CC1=C(C(=O)OCCOC(=O)c2ccccc2)C(c2c(F)cccc2Cl)C2=C(COCCS2(=O)=O)N1 (stereo not drawn) [Compound 10, 5H-[1,4]oxathiepino[6,5-b]pyridine-8-carboxylic acid, 9-(2-chloro-6-fluorophenyl)-2,3,6,9-tetrahydro-7-methyl-, 2-(benzoyloxy)ethyl ester, 1,1-dioxide]
16 | 4.70 | CC1=C(C(=O)OCCO)C(c2ccccc2Cl)C2=C(COCCS2(=O)=O)N1 (stereo not drawn) [Compound 15, 5H-[1,4]oxathiepino[6,5-b]pyridine-8-carboxylic acid, 9-(2-chlorophenyl)-2,3,6,9-tetrahydro-7-methyl-, 2-hydroxyethyl ester, 1,1-dioxide]
17 | 7.40 | CC1=C(C(=O)OCCCOC(=O)c2ccccc2)C(c2ccccc2Cl)C2=C(COCCS2(=O)=O)N1 (stereo not drawn) [Compound 16, 5H-[1,4]oxathiepino[6,5-b]pyridine-8-carboxylic acid, 9-(2-chlorophenyl)-2,3,6,9-tetrahydro-7-methyl-, 3-(benzoyloxy)propyl ester, 1,1-dioxide]
18 | 7.44 | CC1=C(C(=O)OCCOC(=O)C(C)C)C(c2ccccc2Cl)C2=C(COCCS2(=O)=O)N1 (stereo not drawn) [Compound 17, 5H-[1,4]oxathiepino[6,5-b]pyridine-8-carboxylic acid, 9-(2-chlorophenyl)-2,3,6,9-tetrahydro-7-methyl-, 2-(2-methyl-1-oxopropoxy)ethyl ester, 1,1-dioxide]
19 | 7.68 | CC1=C(C(=O)OCc2oc(=O)oc2-c2ccccc2)C(c2cccc(Cl)c2Cl)C2=C(COCCS2(=O)=O)N1 (stereo not drawn) [Compound 18, 5H-[1,4]oxathiepino[6,5-b]pyridine-8-carboxylic acid, 9-(2,3-dichlorophenyl)-2,3,6,9-tetrahydro-7-methyl-, (2-oxo-5-phenyl-1,3-dioxol-4-yl)methyl ester, 1,1-dioxide]
20 | 6.25 | CC1=C(C(=O)OCCCO)C(c2ccccc2Cl)C2=C(COCCS2(=O)=O)N1 (stereo not drawn) [Compound 21]

test system: trachea (trachealis muscle tissue); assay: Test for inhibition of calcium-dependent smooth muscle contraction (KCl-challenged tracheal rings); assay type: cell-based; conditions: Canis lupus familiaris, 10 min; dog tracheal rings, 50 mM KCl challenge, test compound added for 10 minutes
Description: The trachea and the aorta from dogs sacrificed by excess KCl injection are stored overnight at 4° C. in oxygenated Krebs-Henseleit buffer. Tracheal rings, one cartilage segment wide (5-10 mm), are cut starting from the bronchial end. Rings of aorta tissue of the same width are also prepared. After cutting the cartilage, the trachealis muscle tissue and the aorta tissue are suspended in oxygenated Krebs-Henseleit buffer at 37° C. in a 25 ml tissue bath. After a 60-minute equilibration period, the tissues are challenged with 10 μM carbachol. After 5 minutes, the tissues are rinsed and allowed to rest 50 minutes. The tissues are then challenged with 50 mM KCl and, after 30 minutes, the contractions are quantitated. The tissues are then rinsed and re-equilibrated for 50 minutes. Test compounds are then added for 10 minutes, and the tissue is rechallenged with 50 mM KCl. After 30 minutes, the contraction is recorded and used to determine the % inhibition of control. The percent inhibition of smooth muscle contraction is calculated as follows from response data before and after drug treatment:
% inhibition=100−100×peak response after drug treatment/peak response before drug treatment

Row | pIC50 | SMILES
21 | 7.26 | CC1=C(C(=O)OCCN(C)Cc2ccccc2)C(c2ccccc2Cl)C2=C(COCCS2(=O)=O)N1 (stereo not drawn) [Compound 3, 5H-[1,4]oxathiepino[6,5-b]pyridine-8-carboxylic acid, 9-(2-chlorophenyl)-2,3,6,9-tetrahydro-7-methyl, 2-[methyl(phenylmethyl)amino]ethyl ester, 1,1-dioxide]

— patent publication US6476022B1, “Oxathiepino[6,5-b]dihydropyridines, and related compositions and methods” (Ortho-McNeil Pharmaceutical, Inc., priority 1999, dated 2002)
